The test system of experiment [1] is A549 cells. Kind of experiment: Viability (ED50) of A549 cells. The following applies: 24 hours culture. In kind it is cell-based. The procedure:
(§1) ED50: concentration of 6-shogaol, which decreases the cell viability to 0.5 (50%) as compared with the control.
(§2) ED50 of 6-shogaol was examined on various cancer cells (HGC-27 cells, AGS cells, KATO III cells, Jurkat cells, A549 cells, and SW620 cells) to evaluate whether or not 6-shogaol was also effective for cancer cells other than gastric cancer cells. The culturing time was set to 24 hours.

Experiment [2] deals with tubulins. As to the kind of experiment: Tubulin binding experiment, comigration in SDS-PAGE. Conditions: for influence on comigration of NBD-PZ-CO—CH═CH—(CH2)5—CH3 with tubulins: compound coexisting with the probe. As to the method:
Tubulins and a fluorescence dye, NBD-PZ or NBD-PZ-CO—CH═CH—(CH2)5—CH3 were reacted and electrophoresis (SDS-PAGE) was then performed. Binding with the tubulins was determined with comigration (fluorescence derived from NBD-PZ was detected with tubulins).

In experiment [3] the test system is gastric cancer cells (HGC-27 cells). As to the kind of experiment: Effect on tumor of gastric cancer cells transplanted to a nude mouse. Format: in vivo. Conditions: 400 μl at 0 to 200 μg/ml into the abdominal cavity for 8 days; HGC-27 subcutaneous tumor. As to the method:
2.5×10^6 gastric cancer cells (HGC-27 cells) were subcutaneously inoculated into the flank of a nude mouse (7-week-old, purchased from Japan SLC, Inc.). After 3 weeks when the tumors had reached an average volume of approximately 40 mm^3, and then 400 μl of 6-shogaol at 0 to 200 μg/ml was administered into the abdominal cavity for 8 days. The tumor volume was measured before the first administration of 6-shogaol and after one day from the eighth administration. Comparing volumes of the tumor before and after administration of 6-shogaol, its magnification was evaluated as a growth ratio of the tumor.

Experiment [4] relates to SH groups contained in tubulins. As to the kind of experiment: Quantification of SH groups of tubulin, Ellman method. In kind it is biochemical. Conditions: tubulins 2 μM, 100 μM of 6-shogaol. The procedure: SH groups contained in tubulins are converted to 5,5′-dithiobis-nitrobenzoic acid into thionitrobenzoate, and an absorbance of the solution at a wavelength of 412 nm (Ellman reaction) increases. The absorbance (412 nm) was measured to evaluate an influence given to an amount of SH groups.
An α,β-unsaturated carbonyl compound having a larger molecular weight reacted with more SH groups in the tubulins, and as a result, the amount of the SH groups was decreased and the absorbance (412 nm) was lowered (FIG. 8).
(In general: In Ellman's method for cholinesterases, released thiocholine reacts with DTNB.)

The subject of experiment [5] is gastric cancer cells (HGC-27 cells, AGS cells, and KATO III cells). As to the kind of experiment: Cell viability of gastric cancer cells, Cell Titer 96 cell proliferation assay. In kind it is cell-based. The following applies: 0 to 4 μg/ml, 24 hours, HGC-27, AGS. The procedure: 1×10^4 gastric cancer cells (HGC-27 cells, AGS cells, and KATO III cells) were seeded in 96 well-plates, and incubated with 6-shogaol (0 to 4 μg/ml) for 24 hours from the next day. Viability of the cells was evaluated in a coloring method using Cell Titer 96 cell proliferation assay (Promega Co., Madison, Wis.), and an absorbance was measured. In this assay, living cells develop color with a reagent, and as the number of living cells is larger, the absorbance is higher. The cell viability was calculated by (absorbance at each addition concentration of 6-shogaol)/(absorbance at 0 μg/ml). Therefore, the viable cell ratio was 1.0 on the basis of 0 μg/ml. 6-shogaol was purchased from Wako Pure Chemical Industries, Ltd. (Osaka, Japan) (purity of 98% or more). Each gastric cancer cell was available from the cell bank in RIKEN BioResource Center (RIKEN BRC cell bank) or ATCC (American Type Culture Collection).

Experiment [6] concerns HGC-27 cells. As to the kind of experiment: Influence on cell cycle, BrdU flow cytometry. Conditions: 2 μg/ml, 18 hours. In kind it is cell-based. As to the method: 2×10^5 gastric cancer cells (HGC-27 cells) were seeded in 12-well plates and incubated in the presence of 6-shogaol at 2 μg/ml for 18 hours from the next day, and then, further incubated in the presence of 10 μM of BrdU for 2 hours. In order to measure intake of BrdU in nuclei and DNA amounts in the nucleus, the cells were stained using a BrdU flow kit (BD Pharmingen, Inc., San Diego, Calif.). 10000 cells were analyzed with the flow cytometer manufactured by Beckman Coulter, Inc. (Fullerton, Calif.). The cells containing a large amount of DNA and a small amount of BrdU were considered to be in G2-M phase.

Experiment [7] concerns various cancer cells (HGC-27 cells, AGS cells, KATO III cells, Jurkat cells, A549 cells, and SW620 cells). Kind of experiment: Viability (ED50) of various cancer cells. In kind it is cell-based. Conditions: 24 hours culture. The procedure: as §1, §2
Experiment [8] has as its system tubulins. As to the kind of experiment: Tubulin polymerization experiment, absorbance at 340 nm. In kind it is biochemical. Conditions: 20 μM tubulins. The procedure:
Polymerization of 20 μM of tubulins was evaluated by measuring an absorbance at a wavelength of 340 nm.
Along with gradually polymerizing tubulins in a polymerization solution (80 mM PIPES, pH 6.9, 2 mM MgCl2, 0.5 mM EGTA, 5% glycerol and 1 mM GTP), an absorbance of the solution at a wavelength of 340 nm increases. The absorbance (340 nm) was measured in every 5 minutes to thus evaluate an influence given to the polymerization.

For experiment [9], the system named is HGC-27 cells. Kind of experiment: Viable cell ratio of HGC-27 cells, CellTiter96 cell proliferation assay. In kind it is cell-based. Conditions: 0 to 40 μM, 24 hours. The procedure:
1×10^4 gastric cancer cells (HGC-27 cells) were seeded in 96-well plates, and incubated with CH3—CO—CH═CH—(CH2)4—CH3, CH3—CO—(CH2)6—CH3 or CH3—CH2—CH═CH—(CH2)4—CH3 (0 to 40 μM) for 24 hours from the next day. Cell viability was evaluated in a coloring method using CellTiter96 cell proliferation assay (Promega Co., Madison, Wis.), and an absorbance was measured. In this assay, living cells develop color with a reagent, and as the number of living cells is larger, the absorbance is higher. The viable cell ratio was calculated by (absorbance at each addition concentration)/(absorbance at 0 μM). Therefore, the viable cell ratio was 1.0 on the basis of 0 μM.

In experiment [10] the test system is HGC-27 cells. As to the kind of experiment: Immunostaining of actin and tubulins in gastric cancer cells. The following applies: 40 μM, 6 hours. Format: cell-based. The procedure: Gastric cancer cells (HGC-27 cells) were incubated with 6-shogaol at 2 μg/ml for 6 hours and then fixed, and actin was fluorescent-stained with Alexa Fluor phalloidin (Molecular Probes Inc., Eugene, Oreg.), and tubulins were fluorescent-stained with an anti-tubulin β antibody (Lab Vision Co., Fremont, Calif.) and Alexa Fluor 488 labeled second antibody (Molecular Probes, Inc.).
Gastric cancer cells (HGC-27 cells) were incubated with CH3—CO—CH═CH—(CH2)4—CH3, CH3—CO—(CH2)6—CH3 or CH3—CH2—CH═CH—(CH2)4—CH3 (40 μM) for 6 hours and then fixed, and tubulins were fluorescent-stained with anti-tubulin β antibody (Lab Vision Co., Fremont, Calif.) and Alexa Fluor 488 labeling second antibody (Molecular Probes, Inc.).

Structures are written as SMILES.

`CCCCC/C=C/C(=O)CCc1ccc(O)c(OC)c1` [6-shogaol]: in experiment [1], the “susceptibility to 6-shogaol compared with the other cancer cells” value is listed as “low”. Besides, the “influence on comigration of NBD-PZ-CO—CH═CH—(CH2)5—CH3 with tubulins” value in experiment [2] is reported as “the comigration was inhibited”. For the same molecule, the “growth ratio of tumor” value in [3] is recorded as “the growth of the tumor was inhibited”. Also, the “amount of SH groups contained in the tubulins” value in experiment [4] was “approximately the same effect as 500 μM of CH3—CO—CH═CH—(CH2)5—CH3”. For the same molecule, the cell viability entry in experiment [5] is “decreased the cell viability”. Further, the “ratio of cells in G2-M stage” value in experiment [6] is on record as “significantly increased”. The “viability of various cancer cells” value in [7] was “decreased the viability”.
On to `CCC=CCCCCC` [CH3—CH2—CH═CH—(CH2)4—CH3], for which the polymerization of tubulins result in [8] (500 μM compound) is listed as “gave no influence”. Also, in experiment [9], the viable cell ratio entry is on record as “only CH3—CO—CH═CH—(CH2)4—CH3 (∘) decreased the viable cell ratio”. In experiment [10], the “reticulate distribution of tubulins (structure of microtubule)” value is recorded as “only CH3—CO—CH═CH—(CH2)4—CH3 inhibited a reticulate distribution of tubulins”.
Taken in the same sequence, the figures for `CCCCCCCC(C)=O` [CH3—CO—(CH2)6—CH3] were “gave no influence”, “only CH3—CO—CH═CH—(CH2)4—CH3 (∘) decreased the viable cell ratio” and “only CH3—CO—CH═CH—(CH2)4—CH3 inhibited a reticulate distribution of tubulins”.
Turning to `CCCCC[C@H](O)CC(=O)CCc1ccc(O)c(OC)c1` [6-gingerol], in [2], the “influence on comigration of NBD-PZ-CO—CH═CH—(CH2)5—CH3 with tubulins” value is “did not give an influence on comigration”.
On to `CCCCCC=CC(C)=O` [CH3—CO—CH═CH—(CH2)4—CH3], for which the polymerization of tubulins result in [8] (250 μM compound) and in [8] (500 μM compound) was “inhibited polymerization of tubulins” throughout. Besides, the viable cell ratio entry in experiment [9] was “decreased the viable cell ratio”. Also, the “reticulate distribution of tubulins (structure of microtubule)” value in experiment [10] is “inhibited a reticulate distribution of tubulins”.
As for `CCCCCCC=CC(=O)N1CCN(c2ccc([N+](=O)[O-])c3nonc23)CC1` [NBD-PZ-CO—CH═CH—(CH2)5—CH3], the “binding with tubulins (comigration)” value in [2] (probe reacted with tubulins, SDS-PAGE) is listed as “comigrated with the tubulins”.
